Consider 8 molecules from patent US9169254B2, “Spiroimidazolone derivative” (Chugai Seiyaku Kabushiki Kaisha, priority 2009, dated 2015).

Read-outs that look alike come from different tables or passages of the source.

In one assay the target is T1, human PTH1 receptor (Homo sapiens, UniProt Q03431).
T1 sequence (Q03431 27-593): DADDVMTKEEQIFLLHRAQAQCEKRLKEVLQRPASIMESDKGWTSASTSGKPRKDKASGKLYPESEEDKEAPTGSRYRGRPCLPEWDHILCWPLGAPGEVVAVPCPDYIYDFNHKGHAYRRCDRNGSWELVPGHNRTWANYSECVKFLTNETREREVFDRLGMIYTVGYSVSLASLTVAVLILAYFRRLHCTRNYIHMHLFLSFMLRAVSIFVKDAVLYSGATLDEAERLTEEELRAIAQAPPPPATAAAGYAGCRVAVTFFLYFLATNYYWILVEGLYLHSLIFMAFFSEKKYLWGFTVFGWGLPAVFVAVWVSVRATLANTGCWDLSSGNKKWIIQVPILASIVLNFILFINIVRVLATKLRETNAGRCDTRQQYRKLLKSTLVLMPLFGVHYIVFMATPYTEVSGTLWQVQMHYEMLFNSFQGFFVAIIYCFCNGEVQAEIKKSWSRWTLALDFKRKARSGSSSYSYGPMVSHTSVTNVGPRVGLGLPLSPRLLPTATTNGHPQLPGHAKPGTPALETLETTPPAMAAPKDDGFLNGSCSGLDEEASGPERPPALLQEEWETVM
Nature of the assay: In vitro cAMP signal activity in HKRK-B7 cells (LLC-PK1 cells overexpressing the human PTH1 receptor). The assay is classed as cell-based. The following applies: HKRK-B7 cells; compound at 1×10^−3 M; cAMP produced as percentage of that produced by hPTH(1-34) at 100 nM.

The conditions of assay [1]: subcutaneous administration, cited from earlier work.
The conditions of assay [2]: subcutaneous administration, cited from earlier work. This is another data set of the same source.

As to `Cc1cc2cc(C)c1CCS(=O)(=O)N1CCC3(CC1)N=C(CCCC/C=C/CCCCCCCC(=O)N2C)NC3=O` [Compound 1444], the “cAMP production activity (%)” value at human PTH1 receptor is 12%.
`Cc1cc2cc(C)c1CCS(=O)(=O)N1CCC3(CC1)N=C(CCCCCCCCCCCCCC(=O)N2C)NC3=O` [Compound 1445]: on human PTH1 receptor, the “cAMP production activity (%)” value came out at 62%.
Regarding `C=CCCCCC(=O)N(C)c1cc(C)c(CCS(=O)(=O)N2CCC3(CC2)N=C(CCCCC=C)NC3=O)c(C)c1` [Compound 1446, Hept-6-enoic acid {4-[2-(2-hex-5-enyl-4-oxo-1,3,8-triaza-spiro[4.5]dec-1-ene-8-sulfonyl)-ethyl]-3,5-dimethyl-phenyl}-methyl-amide], the “cAMP production activity (%)” value on human PTH1 receptor was 88%.
As to `Cc1cc2cc(C)c1CCS(=O)(=O)N1CCC3(CC1)N=C(CCCC/C=C/CCCCC(=O)N2C)NC3=O` [Compound 1447], the “cAMP production activity (%)” value on human PTH1 receptor is 15%.
As to `Cc1cc2cc(C)c1CCS(=O)(=O)N1CCC3(CC1)N=C(CCCCCCCCCCC(=O)N2C)NC3=O` [Compound 1448], the “cAMP production activity (%)” value at human PTH1 receptor is 9.4%.
Turning to `Cc1cc2ccc1CCS(=O)(=O)N1CCC3(CC1)N=C(NC3=O)c1cc(cc(C(F)(F)F)c1)OCCCCCNC(=O)CN(C)C2=O` [Compound 1449], on human PTH1 receptor, the “cAMP production activity (%)” value is 18%.
Regarding `CC[C@H](C)[C@H](NC(=O)[C@H](CCC(=O)O)NC(=O)[C@H](CO)NC(=O)[C@@H](NC(=O)[C@@H](N)CO)C(C)C)C(=O)N[C@@H](CCC(N)=O)C(=O)N[C@@H](CC(C)C)C(=O)N[C@@H](CCSC)C(=O)N[C@@H](Cc1cnc[nH]1)C(=O)N[C@@H](CC(N)=O)C(=O)N[C@@H](CC(C)C)C(=O)NCC(=O)N[C@@H](CCCCN)C(=O)N[C@@H](Cc1cnc[nH]1)C(=O)N[C@@H](CC(C)C)C(=O)N[C@@H](CC(N)=O)C(=O)N[C@@H](CO)C(=O)N[C@@H](CCSC)C(=O)N[C@@H](CCC(=O)O)C(=O)N[C@@H](CCCN=C(N)N)C(=O)N[C@H](C(=O)N[C@@H](CCC(=O)O)C(=O)N[C@@H](Cc1c[nH]c2ccccc12)C(=O)N[C@@H](CC(C)C)C(=O)N[C@@H](CCCN=C(N)N)C(=O)N[C@@H](CCCCN)C(=O)N[C@@H](CCCCN)C(=O)N[C@@H](CC(C)C)C(=O)N[C@@H](CCC(N)=O)C(=O)N[C@@H](CC(=O)O)C(=O)N[C@H](C(=O)N[C@@H](Cc1cnc[nH]1)C(=O)N[C@@H](CC(N)=O)C(=O)N[C@@H](Cc1ccccc1)C(=O)O)C(C)C)C(C)C` [human PTH(1-34), teriparatide], in assay [1] (in two years), the “decrease of the risk of nonvertebral fracture” value is reported as 55% and the “decrease of the risk of vertebral fracture” value is on record as 65%. The “increase of the spine bone mineral density (BMD)” value in assay [2] (in one year) is 8%.

B1: human PTH(1-84): "Native human parathyroid hormone is a polypeptide consisting of 84 amino acids" (protein, UniProt P01270 32-115, looked up)
Parathyroid hormone: SVSEIQLMHNLGKHLNSMERVEWLRKKLQDVHNFVALGAPLAPRDAGSQRPRKKEDNVLVESHEKSLGEADKADVNVLTKAKSQ
modifications: Parathyroid hormone
As to B1, the “decrease of the risk of vertebral fracture” value in assay [1] (18-month study) is on record as 58%. For the same molecule, the “increase of the spine bone mineral density (BMD)” value in assay [2] (in 18 months) is 6.9%.
